US20070142352A1, “Pteridinone Derivatives as Modulators of Chemokine Receptor Activity” (ASTRAZENECA AB, priority 2001, published 2007)

melting point [°C]	Structure (SMILES)
197 to 199	C[C@H](CO)Nc1nc(SCc2cccc(F)c2F)nc2[nH]c(=O)c(NCCO)nc12 [Example 1, 2-[[(2,3-difluorophenyl)methyl]thio]-6-[(2-hydroxyethyl)amino]-4-[[(1R)-2-hydroxy-1-methylethyl]amino]-7(8H)-pteridinone]
80 to 100	C[C@H](CO)Nc1nc(SCc2cccc(F)c2F)nc2[nH]c(=O)c(NCc3ccccc3)nc12 [Example 2, 2-[[(2,3-difluorophenyl)methyl]thio]-4-[[(1R)-2-hydroxy-1-methylethyl]amino]-6-[(phenylmethyl)amino]-7(8H)-pteridinone]
